Results reported in patent US20210087184A1, “AMINO-BENZOISOTHIAZOLE AND AMINO-BENZOISOTHIADIAZOLE AMIDE COMPOUNDS” (Aerie Pharmaceuticals, Inc., priority 2018, published 2021).
Counter-ions that a name gives are not always drawn.

Test: Topical pharmaceutical composition administered to the eyes (Examples 246-253)
Assay type: in vivo
Conditions: for intraocular pressure / neuroprotective agent: 0.50 wt % topical eye drop composition of Example 246
Method: Topical pharmaceutical compositions for lowering intraocular pressure are prepared by conventional methods and formulated as follows: […]
A compound according to this disclosure is used as the 6-aminobenzoisothiazole derivative. […]

[1] = 0.50 wt % topical eye drop composition of Example 246, twice per day

Structure (SMILES): Cl.Cl.NCC(C(=O)Nc1ccc2cnsc2c1F)c1ccsc1 (stereo not drawn) [3-amino-N-(7-fluoro-benzoisothiazol-6-yl)-2-(thiophen-3-yl)propanamide dihydrochloride]
- intraocular pressure: substantially decreases
- neuroprotective agent: serves as a neuroprotective agent

Structure (SMILES): NC(CC(=O)Nc1ccc2cnsc2c1)c1ccsc1 (stereo not drawn) [Example E6, 3-amino-N-(benzoisothiazol-6-yl)-3-(thiophen-3-yl)propanamide dihydrochloride]
- intraocular pressure: substantially decreases
- neuroprotective agent: serves as a neuroprotective agent

Structure (SMILES): CN(C)CC(C(=O)Nc1ccc2cnsc2c1)c1ccsc1 (stereo not drawn) [Example E44, 3-(dimethylamino)-N-(benzoisothiazol-6-yl)-2-(thiophen-3-yl)propanamide dihydrochloride]
- hyperemia, redness and ocular irritation (0.50 wt % topical eye drop composition of Example 246, as needed): substantially decreases

Structure (SMILES): NCC(C(=O)Nc1ccc2cnsc2c1)c1ccsc1 (stereo not drawn) [Example E49, 3-amino-N-(benzoisothiazol-6-yl)-2-(thiophen-3-yl)propanamide dihydrochloride]
- intraocular pressure: substantially decreases

Structure (SMILES): O=C(NCc1ccccn1)c1ccc([C@H]2C[C@@H]2C(=O)Nc2ccc3cnsc3c2)cc1 [Example E150, 4-((1S,2S)-2-(benzoisothiazol-6-ylcarbamoyl)cyclopropyl)-N-(pyridin-2-ylmethyl)benzamide]
- intraocular pressure: substantially decreases
- allergic symptoms [1]: substantially decreases
- dry eye syndrome [1]: relieves
